Reference: the supplement of paper PMC5412046

Key:
SB.mhdgc-1 = assay: AC50 for growth inhibition (viability) (log10 M); higher = less potent; conditions: SB.mhdgc-1 (hereditary c.1380delA CDH1 gastric cancer)
In short: (§1)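 Log half-maximal activity concentration reflects viability of patient-derived gastric cancer cells, hereditary or sporadic, normalised to DMSO and fitted with four parameters, with only high-quality curve classes retained. Wells of a 1536 plate held 500 cells and received compound by pintool at 11 threefold dilutions from a final 46 μM. Luminescence from CellTiter-Glo was read on a ViewLux at 48 h.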

SB.msgc-1 = assay: as above; conditions: SB.msgc-1 (sporadic gastric cancer)
In short: as §1

Row | SMILES | AC50 for growth inhibition (log10 M) (SB.mhdgc-1) | AC50 for growth inhibition (log10 M) (SB.msgc-1)
1 | c1ccc(CCCN2CCN(CCOC(c3ccccc3)c3ccccc3)CC2)cc1 | -4.73 | -4.68
2 | CC(=O)Nc1sc2c(c1-c1nc3ccccc3s1)CNC2 | -6.08 | -4.68
3 | CC(NCc1ccc2c(c1)[nH]/c(=N\C(=O)c1ccc(-c3cn[nH]c3)s1)n2CC(C)(C)O)C(C)(C)C (configuration not stated) | -5.43 | -6.18
4 | CC1=CC=CC=C1N2\C(=N/C3=C(C(=CC=C3)C)C2=O)C[N]4C=NC5=C4N=CN=C5N | -5.43 | -6.23
5 | Cc1cccc(-c2[nH]c(C(C)(C)C)nc2-c2ccc3nccnc3c2)n1 | -4.83 | -5.73
6 | CN(C)CCCN\C1=C\2C(=O)N(C)C(=O)\N=C2N(C)C3=C1C=CC=C3 | -5.73 | -4.73
7 | COc1cc(C)c(Sc2cnc(NC(=O)c3ccc(CNC(C)C(C)(C)C)cc3)s2)cc1C(=O)N1CCN(C(C)=O)CC1 (configuration not stated) | -4.98 | -4.98
8 | COc1cc2nc(N3CCCN(C)CC3)nc(NC3CCN(Cc4ccccc4)CC3)c2cc1OC | -5.28 | -4.88
9 | C[C@H]1CN(C[C@@H](C)O1)CC(=O)NC2=CC=C3SC4=C(CC3=C2)C=CC=C4\C5=C\C(=O)\C=C(/O5)N6CCOCC6 | -5.23 | -5.28
10 | O=C(Nc1ccc(F)c(C(F)(F)F)c1)Nc1nnc(-c2ccncc2)s1 | -5.53 | -5.28
11 | C=CC(=O)N1CCC[C@@H](n2nc(-c3ccc(Oc4ccccc4)cc3)c3c(N)ncnc32)C1 | -5.98 | -7.48
12 | Nc1n[nH]c2nnc(-c3c(-c4ccccc4)nn4ccccc34)cc12 | -5.03 | -5.23
13 | O=C(NOCC1CC1)c1ccc(F)c(F)c1Nc1ccc(I)cc1Cl | -4.78 | -4.83
14 | O=C1NC(=O)/C(=C/c2ccc3nccnc3c2)S1 | -4.84 | -4.89
15 | O=C(Nc1nc2ccccc2n1CCN1CCOCC1)c1cccc([N+](=O)[O-])c1 | -4.83 | -4.83
16 | NC(CSC(c1ccccc1)(c1ccccc1)c1ccccc1)C(=O)O (stereo in doubt) [S-Trityl-L-cysteine] | -5.58 | -5.03
17 | Nc1nc(F)nc2c1ncn2[C@@H]1O[C@H](CO)[C@@H](O)[C@H]1O [2-Fluoroadenosine] | -6.23 | -6.23
18 | COc1cc([C@@H]2c3cc4c(cc3[C@@H](O)C3COC(=O)C32)OCO4)cc(OC)c1O (some centres not stated) [4-Demethylepipodophyllotoxin] | -7.38 | -6.63
19 | NC/1=N/C(=O)N(/C=N1)[C@@H]2O[C@H](CO)[C@@H](O)[C@H]2O [5-Azacitidine] | -4.88 | -5.53
20 | CC(=O)O/N=C1/C(=C2\C(=O)Nc3cc(Br)ccc32)Nc2ccccc21 [6-Bromoindirubin-3'-acetoxime] | -5.13 | -4.93
21 | CN[C@@H]1C[C@H]2O[C@@](C)([C@@H]1OC)n1c3ccccc3c3c4c(c5c6ccccc6n2c5c31)C(=O)N[C@H]4O [7-Hydroxystaurosporine] | -6.28 | -5.93
22 | Nc1ncnc2c1nc(Cl)n2[C@@H]1O[C@H](CO)[C@@H](O)[C@H]1O [8-Cl-Ado] | -4.78 | -4.68
23 | CC(=O)O[C@@]12CO[C@@H]1C[C@H](O)[C@]3(C)[C@@H]2[C@H](OC(=O)C4=CC=CC=C4)[C@]5(O)C[C@H](O)/C(=C(/[C@@H](O)C3=O)C5(C)C)C [10-Deacetylbaccatin] | -5.83 | -5.38
24 | CC[C@@]1(O)C(=O)OCC/2=C1/C=C3\N(CC4=CC5=CC(=CC=C5N=C34)O)C2=O [10-hydroxycamptothecin] | -7.83 | -7.33
25 | CCCCC(C)(C)[C@H](O)/C=C/[C@H]1[C@H](O)CC(=O)[C@@H]1C/C=C\CCCC(=O)O [16,16-dimethyl PGE2] | -4.68 | -4.63
26 | COC[C@H]1OC(=O)C2=COC3=C2[C@@]1(C)\C4=C(\[C@@H]5CC[C@H](O)[C@@]5(C)C[C@H]4OC(C)=O)C3=O [17_-hydroxy Wortmannin] | -5.53 | -5.58

Row | SMILES | AC50 for growth inhibition (log10 M) (SB.mhdgc-1) | AC50 for growth inhibition (log10 M) (SB.msgc-1)
27 | C[C@](O)(CS(=O)(=O)c1ccc(F)cc1)C(=O)Nc1ccc(C#N)c(C(F)(F)F)c1 [(R)-Bicalutamide] | -6.33 | -6.03
28 | Cc1nc(NC(=O)N2CCC[C@H]2C(N)=O)sc1-c1csc(C(C)(C)C)n1 [A-66] | -5.38 | -6.53
29 | CC1(C)CCC(=C(\C1)C2=CC=C(Cl)C=C2)/CN3CCN(CC3)C4=CC(=C(C=C4)C(=O)N[S+]([O-])(=O)C5=CC=C(NCC6CCOCC6)C(=C5)[N+]([O-])=O)OC7=CN=C8[NH]C=CC8=C7 [ABT-199] | -4.73 | -4.88
30 | CN(C)CC[C@H](CSc1ccccc1)Nc1ccc([S+](=O)([O-])NC(=O)c2ccc(N3CCN(Cc4ccccc4-c4ccc(Cl)cc4)CC3)cc2)cc1[N+](=O)[O-] [ABT-737] | -5.43 | -5.03
31 | Cc1c(NC(=O)OC[C@@H]2COCCN2)cn2ncnc(Nc3ccc4c(cnn4Cc4cccc(F)c4)c3)c12 [AC-480] | -6.53 | -6.68
32 | O=C(CCCCCCNC(=O)c1cnc(N(c2ccccc2)c2ccccc2)nc1)NO [ACY-1215] | -5.23 | -5.08
33 | CC(C)(C)c1cc(C=C(C#N)C#N)cc(Br)c1O [AG-1024] | -5.03 | -5.43
34 | COc1cc2ncnc(Nc3cccc(Cl)c3)c2cc1OC [AG-1478] | -7.43 | -6.23
35 | O=C(O)c1ccc2cc(-c3ccc(O)c(C45CC6CC(CC(C6)C4)C5)c3)ccc2c1 [AHPN] | -6.48 | -4.83
36 | c1ccc(-c2oc3ncnc(NC[C@@H]4CCCO4)c3c2-c2ccccc2)cc1 [AIM-100] | -5.08 | -5.73
37 | Cc1ccc(C(=O)Nc2cccc(C(F)(F)F)c2)cc1-c1ccc2nc(NCCN3CCOCC3)ncc2c1 [AMG-47a] | -5.28 | -5.03
38 | COC1=C(OCCCN2CCOCC2)C=C3N=CC=C(OC4=CC=C(C=C4F)\C5=C\N=C(\NC6=CC=C(F)C=C6)N(C)C5=O)C3=C1 [AMG-51] | -5.03 | -4.73
39 | CNc1nccc(-c2cccnc2Oc2cc(C(=O)Nc3cccc(C(F)(F)F)c3)ccc2C)n1 [AMG-Tie2-1] | -4.83 | -4.63
40 | CC1=CC=C(C=C1)\C2=N\C3=CC=C(Cl)C=C3OC2 [AR7] | -5.03 | -5.03
41 | CNC(=O)c1ccc(N2C(=S)N(c3cnc(C#N)c(C(F)(F)F)c3)C(=O)C23CCC3)cc1F [ARN-509] | -6.53 | -6.08
42 | C[C@H]1[C@@H](CC(C[C@H]2O[C@@H]3O[C@]4(C)CC[C@H]5[C@H](C)CC[C@@H]([C@H]2C)[C@@]35OO4)C[S+](=O)([O-])c2ccc(COC(=O)N(C)C)cc2)O[C@@H]2O[C@]3(C)CC[C@H]4[C@H](C)CC[C@@H]1[C@@]24OO3 [ASR-isobudimer-SO2Ph-4-CH2OC(O)NMe2] | -6.93 | -6.48
43 | C=CC(=O)Nc1ccc2ncnc(Nc3ccc(OCc4cccc(F)c4)c(Cl)c3)c2c1 [AST-1306] | -5.28 | -8.33
44 | CN[C@@H](C)C(=O)N[C@H]1CN(C(=O)CC(C)C)CC[C@H]2CC[C@@H](C(=O)NC(c3ccccc3)c3ccccc3)N2C1=O [AT-406] | -5.63 | -4.98
45 | O=C(NC1CCNCC1)c1n[nH]cc1NC(=O)c1c(Cl)cccc1Cl [AT-7519] | -7.18 | -6.68
46 | Clc1ccc(C2(c3ccc(-c4cn[nH]c4)cc3)CCNCC2)cc1 [AT-7867] | -4.88 | -4.73
47 | O=C(Nc1c[nH]nc1-c1nc2cc(CN3CCOCC3)ccc2[nH]1)NC1CC1 [AT-9283] | -6.18 | -5.38
48 | C=CC(=O)Nc1cc2c(Nc3ccc(F)c(Cl)c3)ncnc2cc1C#CC(C)(C)N1CCN(C)CC1 [AV-412] | -5.53 | -5.08
49 | CC[C@H](CC#N)OC(=O)N[C@@H](C)c1cccc(NC(=O)Nc2ccc(-c3cnco3)c(OC)c2)c1 [AVN-944] | -5.88 | -5.23
50 | Cc1cc(Nc2nc(N[C@@H](C)c3ccc(F)cc3)c(C#N)cc2F)n[nH]1 [AZ-960] | -4.73 | -4.68
51 | NC(=O)Nc1cc(-c2ccc(CN3CCOCC3)cc2)sc1C(N)=O [AZ-TAK1 Inhibitor] | -4.68 | -4.73
